Laboratory results published in ChEMBL document CHEMBL3885881, “DrugMatrix”.

Species: Rattus norvegicus
Assay: DrugMatrix - Regimen: Daily Repeat
Assay type: toxicity, organism-based, Sprague-Dawley
Parameters: regimen Daily Repeat, gender Male, age 6-8 weeks
Settings: in vivo, po, route oral GAVAGE, […]; for ABSOLUTE BASOPHIL / ABSOLUTE EOSINOPHIL / ABSOLUTE LYMPHOCYTE / ABSOLUTE MONOCYTE / ABSOLUTE SEGMENTED NEUTROPHIL / BASOPHIL / EOSINOPHIL / ERYTHROCYTE COUNT / HEMATOCRIT / HEMOGLOBIN / LEUKOCYTE COUNT / LYMPHOCYTE / MEAN CORPUSCULAR HEMOGLOBIN / MEAN CORPUSCULAR HEMOGLOBIN CONCENTRATION / MEAN CORPUSCULAR VOLUME / MONOCYTE / NEUTROPHIL / NUCLEATED RED BLOOD CELLS / PLATELET COUNT: tissue Blood; for ALANINE AMINOTRANSFERASE / ALBUMIN / ALKALINE PHOSPHATASE / ASPARTATE AMINOTRANSFERASE / BLOOD UREA NITROGEN / CARBON DIOXIDE / CHLORIDE / CHOLESTEROL / CREATINE PHOSPHOKINASE / CREATININE / GLUCOSE / LACTATE DEHYDROGENASE / LIPASE / PHOSPHORUS / POTASSIUM / SODIUM / TOTAL BILIRUBIN / TOTAL PROTEIN / URIC ACID: tissue Plasma
[1] = 20 mg/kg, 72 h, dose level Low, time 3 day
[2] = 20 mg/kg, 120 h, dose level Low, time 5 day
[3] = 62 mg/kg, 72 h, dose level High, time 3 day
[4] = 62 mg/kg, 120 h, dose level High, time 5 day

CCCSc1ccc2nc(NC(=O)OC)[nH]c2c1 [ALBENDAZOLE]
ABSOLUTE BASOPHIL [1]: 0 CELLS/uL | ABSOLUTE EOSINOPHIL [1]: 0 CELLS/uL | ABSOLUTE LYMPHOCYTE [1]: 12808 CELLS/uL | ABSOLUTE MONOCYTE [1]: 184.67 CELLS/uL | ABSOLUTE SEGMENTED NEUTROPHIL [1]: 1574 CELLS/uL | BASOPHIL [1]: 0% | EOSINOPHIL [1]: 0% | ERYTHROCYTE COUNT [1]: 5.37 x10E6/uL | HEMATOCRIT [1]: 33.33% | HEMOGLOBIN [1]: 13.47 G/DL | LEUKOCYTE COUNT [1]: 14.57 x10E3/uL | LYMPHOCYTE [1]: 88.67% | MEAN CORPUSCULAR HEMOGLOBIN [1]: 25.17 pg | MEAN CORPUSCULAR HEMOGLOBIN CONCENTRATION [1]: 40.47 G/DL | MEAN CORPUSCULAR VOLUME [1]: 62.17 fL | MONOCYTE [1]: 1.33% | NEUTROPHIL [1]: 10% | NUCLEATED RED BLOOD CELLS [1]: 0.33 /100WBC | PLATELET COUNT [1]: 1157.33 x10E3/uL | ALANINE AMINOTRANSFERASE [1]: 56.33 u/L | ALBUMIN [1]: 3.6 G/DL | ALKALINE PHOSPHATASE [1]: 430 u/L | ASPARTATE AMINOTRANSFERASE [1]: 87.33 u/L | BLOOD UREA NITROGEN [1]: 13.33 mg/dL | CARBON DIOXIDE [1]: 24.67 mmol/L | CHLORIDE [1]: 101 MEQ/L | CHOLESTEROL [1]: 64 mg/dL | CREATINE PHOSPHOKINASE [1]: 390.67 u/L | CREATININE [1]: 0.21 mg/dL | GLUCOSE [1]: 220.67 mg/dL | LACTATE DEHYDROGENASE [1]: 112.33 u/L | LIPASE [1]: 10.67 u/L | PHOSPHORUS [1]: 12.2 mg/dL | POTASSIUM [1]: 6.27 MEQ/L | SODIUM [1]: 141.23 MEQ/L | TOTAL BILIRUBIN [1]: 0.2 mg/dL | TOTAL PROTEIN [1]: 5.2 G/DL | URIC ACID [1]: 2.23 mg/dL | ABSOLUTE BASOPHIL [2]: 0 CELLS/uL | ABSOLUTE EOSINOPHIL [2]: 69.33 CELLS/uL | ABSOLUTE LYMPHOCYTE [2]: 7738 CELLS/uL | ABSOLUTE MONOCYTE [2]: 149.67 CELLS/uL | ABSOLUTE SEGMENTED NEUTROPHIL [2]: 776.33 CELLS/uL | BASOPHIL [2]: 0% | EOSINOPHIL [2]: 0.67% | ERYTHROCYTE COUNT [2]: 4.93 x10E6/uL | HEMATOCRIT [2]: 31.3% | HEMOGLOBIN [2]: 12.87 G/DL | LEUKOCYTE COUNT [2]: 8.73 x10E3/uL | LYMPHOCYTE [2]: 89.33% | MEAN CORPUSCULAR HEMOGLOBIN [2]: 26.07 pg | MEAN CORPUSCULAR HEMOGLOBIN CONCENTRATION [2]: 41.1 G/DL | MEAN CORPUSCULAR VOLUME [2]: 63.4 fL | MONOCYTE [2]: 1.67% | NEUTROPHIL [2]: 8.33% | NUCLEATED RED BLOOD CELLS [2]: 0 /100WBC | PLATELET COUNT [2]: 1525.33 x10E3/uL | ALANINE AMINOTRANSFERASE [2]: 53.67 u/L | ALBUMIN [2]: 4.03 G/DL | ALKALINE PHOSPHATASE [2]: 375.33 u/L | ASPARTATE AMINOTRANSFERASE [2]: 79 u/L | BLOOD UREA NITROGEN [2]: 15 mg/dL | CARBON DIOXIDE [2]: 26 mmol/L | CHLORIDE [2]: 102.67 MEQ/L | CHOLESTEROL [2]: 67 mg/dL | CREATINE PHOSPHOKINASE [2]: 225.67 u/L | CREATININE [2]: 0.21 mg/dL | GLUCOSE [2]: 161 mg/dL | LACTATE DEHYDROGENASE [2]: 141 u/L | LIPASE [2]: 11.67 u/L | PHOSPHORUS [2]: 10.97 mg/dL | POTASSIUM [2]: 5.64 MEQ/L | SODIUM [2]: 141.93 MEQ/L | TOTAL BILIRUBIN [2]: 0.1 mg/dL | TOTAL PROTEIN [2]: 5.5 G/DL | URIC ACID [2]: 1.37 mg/dL | ABSOLUTE BASOPHIL [3]: 0 CELLS/uL | ABSOLUTE EOSINOPHIL [3]: 0 CELLS/uL | ABSOLUTE LYMPHOCYTE [3]: 10254.67 CELLS/uL | ABSOLUTE MONOCYTE [3]: 0 CELLS/uL | ABSOLUTE SEGMENTED NEUTROPHIL [3]: 712 CELLS/uL | BASOPHIL [3]: 0% | EOSINOPHIL [3]: 0% | ERYTHROCYTE COUNT [3]: 5.64 x10E6/uL | HEMATOCRIT [3]: 34.47% | HEMOGLOBIN [3]: 13.47 G/DL | LEUKOCYTE COUNT [3]: 10.97 x10E3/uL | LYMPHOCYTE [3]: 94% | MEAN CORPUSCULAR HEMOGLOBIN [3]: 24 pg | MEAN CORPUSCULAR HEMOGLOBIN CONCENTRATION [3]: 39.13 G/DL | MEAN CORPUSCULAR VOLUME [3]: 61.27 fL | MONOCYTE [3]: 0% | NEUTROPHIL [3]: 6% | NUCLEATED RED BLOOD CELLS [3]: 0 /100WBC | PLATELET COUNT [3]: 1007.33 x10E3/uL | ALANINE AMINOTRANSFERASE [3]: 44 u/L | ALBUMIN [3]: 4.13 G/DL | ALKALINE PHOSPHATASE [3]: 381 u/L | ASPARTATE AMINOTRANSFERASE [3]: 99.67 u/L | BLOOD UREA NITROGEN [3]: 11 mg/dL | CARBON DIOXIDE [3]: 27.33 mmol/L | CHLORIDE [3]: 101.33 MEQ/L | CHOLESTEROL [3]: 99 mg/dL | CREATINE PHOSPHOKINASE [3]: 278 u/L | CREATININE [3]: 0.13 mg/dL | GLUCOSE [3]: 161.33 mg/dL | LACTATE DEHYDROGENASE [3]: 198.67 u/L | LIPASE [3]: 11.67 u/L | PHOSPHORUS [3]: 10.53 mg/dL | POTASSIUM [3]: 5.98 MEQ/L | SODIUM [3]: 141.53 MEQ/L | TOTAL BILIRUBIN [3]: 0.17 mg/dL | TOTAL PROTEIN [3]: 5.8 G/DL | URIC ACID [3]: 1.43 mg/dL | ABSOLUTE BASOPHIL [4]: 0 CELLS/uL | ABSOLUTE EOSINOPHIL [4]: 0 CELLS/uL | ABSOLUTE LYMPHOCYTE [4]: 7019.67 CELLS/uL | ABSOLUTE MONOCYTE [4]: 23.67 CELLS/uL | ABSOLUTE SEGMENTED NEUTROPHIL [4]: 190 CELLS/uL | BASOPHIL [4]: 0% | EOSINOPHIL [4]: 0% | ERYTHROCYTE COUNT [4]: 5.03 x10E6/uL | HEMATOCRIT [4]: 31% | HEMOGLOBIN [4]: 12.5 G/DL | LEUKOCYTE COUNT [4]: 7.23 x10E3/uL | LYMPHOCYTE [4]: 97% | MEAN CORPUSCULAR HEMOGLOBIN [4]: 24.9 pg | MEAN CORPUSCULAR HEMOGLOBIN CONCENTRATION [4]: 40.33 G/DL | MEAN CORPUSCULAR VOLUME [4]: 61.77 fL | MONOCYTE [4]: 0.33% | NEUTROPHIL [4]: 2.67% | NUCLEATED RED BLOOD CELLS [4]: 0 /100WBC | PLATELET COUNT [4]: 1425 x10E3/uL | ALANINE AMINOTRANSFERASE [4]: 29.33 u/L | ALBUMIN [4]: 4.03 G/DL | ALKALINE PHOSPHATASE [4]: 247.67 u/L | ASPARTATE AMINOTRANSFERASE [4]: 66.33 u/L | BLOOD UREA NITROGEN [4]: 12.33 mg/dL | CARBON DIOXIDE [4]: 24.33 mmol/L | CHLORIDE [4]: 101.33 MEQ/L | CHOLESTEROL [4]: 90.67 mg/dL | CREATINE PHOSPHOKINASE [4]: 237.67 u/L | CREATININE [4]: 0.11 mg/dL | GLUCOSE [4]: 141.33 mg/dL | LACTATE DEHYDROGENASE [4]: 106.33 u/L | LIPASE [4]: 11 u/L | PHOSPHORUS [4]: 11.33 mg/dL | POTASSIUM [4]: 6.31 MEQ/L | SODIUM [4]: 141.93 MEQ/L | TOTAL BILIRUBIN [4]: 0.27 mg/dL | TOTAL PROTEIN [4]: 5.37 G/DL | URIC ACID [4]: 1.77 mg/dL
